Measurements reported in US20260274855A1, “AMORPHOUS FORM OF ISOQUINOLINE DERIVATIVE” (vTv Therapeutics LLC, priority 2020, published 2026).
Structures can show the parent of a compound that is named as a salt. Where two headings read alike, the source gives them in different places.

How the values were obtained:
Format in all cases: physicochemical
[1] = Stability study at 40° C. and 100% RH for 7 days
Protocol: The stability of crystal form B of OAD2 hydrochloride and the amorphous form of OAD2 dihydrochloride was tested under conditions of 40° C./100% RH for 1 week.

[2] = 30-day stability study at 60° C.
Protocol: A 30-day stability study at 60° C. was conducted on a sample of material obtained from the method of Example 3.

[3] = 3 month stability study at 25° C. ± 2° C. and 60% RH
Protocol: A 3-month stability study was conducted at 25° C.±2° C. and 60% relative humidity.

[4] = Dissolution studies, four-part dissolution test method of Chinese Pharmacopoeia (2015 edition)
Protocol: Dissolution studies were conducted according to the four-part dissolution test method in the Chinese Pharmacopoeia (2015 edition) in the following solvents: methanol, acetic acid, ethanol, 0.1 mol/L HCl, acetonitrile, and 2-methyltetrahydrofuran. The dissolution study method involves weighing a fine powder (after grinding) of solid test product, attempting to dissolve in a proper volume of solvent by strongly shaking for 30 seconds every 5 minutes for 30 minutes, and recording observations after 30 minutes.

[5] = Hygroscopicity study, DVS test (25° C., 80% RH)
Protocol: Dynamic moisture adsorption (DVS) curves were collected on DVS Intrinsic of Surface Measurement Systems (SMS). The relative humidity at 25° C. was corrected with the deliquescent points of LiCl, Mg(NO3)2 and KCl.

[6] = Solubility in aqueous solutions at various pH's
[7] = Month 0, listed as Ex. 3, dihydrochloride salt
[8] = Month 0, listed as Ex. 4, dihydrochloride salt
[9] = Month 0, listed as Ex. 5, dihydrochloride salt
[10] = Month 1, listed as Ex. 3, dihydrochloride salt
[11] = Month 1, listed as Ex. 4, dihydrochloride salt
[12] = Month 1, listed as Ex. 5, dihydrochloride salt
[13] = Month 2, listed as Ex. 3, dihydrochloride salt
[14] = Month 2, listed as Ex. 4, dihydrochloride salt
[15] = Month 2, listed as Ex. 5, dihydrochloride salt
[16] = Month 3, listed as Ex. 3, dihydrochloride salt
[17] = Month 3, listed as Ex. 4, dihydrochloride salt
[18] = Month 3, listed as Ex. 5, dihydrochloride salt

- Decrease in purity ([1]; 40° C./100% RH for 1 week): no distinct decrease in purity
- HPLC (area %) ([1]; 40° C./100% RH/7 d): 97.51 area %
- HPLC (area %) ([1]; Initiation): 98.91 area %
- Appearance ([2]; Day 0): Off-white
- Moisture Content ([2]; Day 0): 1.6%
- Percentage of external standard content ([2]; Day 0): 97.1%
- Purity ([2]; Day 0): 99.03%
- Solid form ([2]; Day 0): Amorphous
- Appearance ([2]; Day 5): Off-white
- Moisture Content ([2]; Day 5): 2.7%
- Percentage of external standard content ([2]; Day 5): 99.1%
- Purity ([2]; Day 5): 98.7%
- Solid form ([2]; Day 5): Amorphous
- Appearance ([2]; Day 10): Off-white
- Moisture Content ([2]; Day 10): 2.4%
- Percentage of external standard content ([2]; Day 10): 97.5%
- Purity ([2]; Day 10): 98.7%
- Solid form ([2]; Day 10): Amorphous
- Appearance ([2]; Day 30): Pale-yellow
- Moisture Content ([2]; Day 30): 2.5%
- Percentage of external standard content ([2]; Day 30): 97.4%
- Purity ([2]; Day 30): 97.7%
- Solid form ([2]; Day 30): Amorphous
- Appearance ([3]; Month 0): Off-white
- Solid form ([3]; Month 0): Amorphous
- Moisture Content [3, 7]: 1.7%
- Percentage of external standard content [3, 7]: 98.1%
- Purity [3, 7]: 99.30%
- Moisture Content [3, 8]: 2.5%
- Percentage of external standard content [3, 8]: 97.1%
- Purity [3, 8]: 98.7%
- Moisture Content [3, 9]: 1.6%
- Percentage of external standard content [3, 9]: 97.1%
- Purity [3, 9]: 99.03%
- Appearance ([3]; Month 1): Off-white
- Solid form ([3]; Month 1): Amorphous
- Moisture Content [3, 10]: 3.1%
- Percentage of external standard content [3, 10]: 99.0%
- Purity [3, 10]: 99.25%
- Moisture Content [3, 11]: 4.7%
- Percentage of external standard content [3, 11]: 96.8%
- Purity [3, 11]: 98.6%
- Moisture Content [3, 12]: 3.3%
- Percentage of external standard content [3, 12]: 97.2%
- Purity [3, 12]: 98.90%
- Appearance ([3]; Month 2): Off-white
- Solid form ([3]; Month 2): Amorphous
- Moisture Content [3, 13]: 3.4%
- Percentage of external standard content [3, 13]: 98.7%
- Purity [3, 13]: 99.30%
- Moisture Content [3, 14]: 3.6%
- Percentage of external standard content [3, 14]: 97.6%
- Purity [3, 14]: 98.6%
- Moisture Content [3, 15]: 4.1%
- Percentage of external standard content [3, 15]: 97.8%
- Purity [3, 15]: 98.90%
- Appearance ([3]; Month 3): Off-white
- Solid form ([3]; Month 3): Amorphous
- Moisture Content [3, 16]: 3.7%
- Percentage of external standard content [3, 16]: 99.8%
- Purity [3, 16]: 99.23%
- Moisture Content [3, 17]: 4.8%
- Percentage of external standard content [3, 17]: 98.2%
- Purity [3, 17]: 98.5%
- Moisture Content [3, 18]: 4.5%
- Percentage of external standard content [3, 18]: 98.7%
- Purity [3, 18]: 98.90%
- Dissolution ([4]; 0.1 mol/L HCl, about 1 g sample in 9.99 mL, after 30 minutes, listed as 3, dihydrochloride salt): Incomplete
- Dissolution ([4]; 0.1 mol/L HCl, about 1 g sample in 9.99 mL, after 30 minutes, listed as 4, dihydrochloride salt): Incomplete
- Dissolution ([4]; 0.1 mol/L HCl, about 1 g sample in 9.99 mL, after 30 minutes, listed as 5, dihydrochloride salt): Incomplete
- Dissolution ([4]; 0.1 mol/L HCl, about 1 g sample in 9.99 mL, after 30 minutes, listed as amorphous solid of OAD2 dihydrochloride salt, dihydrochloride salt): completely dissolved
- Dissolution ([4]; 0.1 mol/L HCl, about 1 g sample in 29.99 mL, after 30 minutes): Complete
- Dissolution ([4]; 2-methyl tetrahydrofuran, about 0.01 g sample in 101 mL, after 30 minutes, listed as 3, dihydrochloride salt): Incomplete
- Dissolution ([4]; 2-methyl tetrahydrofuran, about 0.01 g sample in 101 mL, after 30 minutes, listed as 4, dihydrochloride salt): Incomplete
- Dissolution ([4]; 2-methyl tetrahydrofuran, about 0.01 g sample in 101 mL, after 30 minutes, listed as 5, dihydrochloride salt): Incomplete
- Dissolution ([4]; 2-methyl tetrahydrofuran, about 0.01 g sample in 101 mL, after 30 minutes, listed as amorphous solid of OAD2 dihydrochloride salt, dihydrochloride salt): incompletely dissolved
- Dissolution ([4]; Acetonitrile, about 0.01 g sample in 101 mL, after 30 minutes, listed as 3, dihydrochloride salt): Incomplete
- Dissolution ([4]; Acetonitrile, about 0.01 g sample in 101 mL, after 30 minutes, listed as 4, dihydrochloride salt): Incomplete
- Dissolution ([4]; Acetonitrile, about 0.01 g sample in 101 mL, after 30 minutes, listed as 5, dihydrochloride salt): Incomplete
- Dissolution ([4]; Acetonitrile, about 0.01 g sample in 101 mL, after 30 minutes, listed as amorphous solid of OAD2 dihydrochloride salt, dihydrochloride salt): incompletely dissolved
- Dissolution ([4]; Ethanol, about 1 g sample in 9.99 mL, after 30 minutes, listed as 3, dihydrochloride salt): Incomplete
- Dissolution ([4]; Ethanol, about 1 g sample in 9.99 mL, after 30 minutes, listed as 4, dihydrochloride salt): Incomplete
- Dissolution ([4]; Ethanol, about 1 g sample in 9.99 mL, after 30 minutes, listed as 5, dihydrochloride salt): Incomplete
- Dissolution ([4]; Ethanol, about 1 g sample in 9.99 mL, after 30 minutes, listed as amorphous solid of OAD2 dihydrochloride salt, dihydrochloride salt): completely dissolved
- Dissolution ([4]; Ethanol, about 1 g sample in 29.99 mL, after 30 minutes): Complete
- Dissolution ([4]; Methanol, about 1 g sample in 9.99 mL, after 30 minutes, listed as 3, dihydrochloride salt): Complete
- Dissolution ([4]; Methanol, about 1 g sample in 9.99 mL, after 30 minutes, listed as 4, dihydrochloride salt): Complete
- Dissolution ([4]; Methanol, about 1 g sample in 9.99 mL, after 30 minutes, listed as 5, dihydrochloride salt): Complete
- Dissolution ([4]; Methanol, about 1 g sample in 9.99 mL, after 30 minutes, listed as amorphous solid of OAD2 dihydrochloride salt, dihydrochloride salt): completely dissolved
- Dissolution ([4]; acetic acid, about 10 mL of solvent): completely dissolved
- Moisture adsorption rate [5]: 8.3%
- solubility ([6]; Buffer pH 5): Not detectable
- solubility ([6]; aqueous solution, aqueous buffer, thermodynamic from solid, Buffer pH 7, read-out: Solubility): 90 µg/mL
- solubility ([6]; aqueous solution, aqueous buffer, thermodynamic from solid, Buffer pH 9, read-out: Solubility): 50 µg/mL
- solubility ([6]; aqueous solution, aqueous buffer, thermodynamic from solid, solvent 0.1 NaOH, read-out: Solubility): 17 µg/mL
- solubility ([6]; aqueous solution, simulated gastric fluid, thermodynamic from solid, solvent 0.1 HCl, read-out: Solubility): > 51000 µg/mL
- solubility ([6]; solvent 0.1 HCl, listed as OAD2 dihydrochloride salt, dihydrochloride salt): >51000 µg/mL
Compound: CC[C@@H](c1ccccc1)N1Cc2cc3c(cc2C[C@H]1C(=O)N[C@@H](Cc1ccc(-c2ccnc(C)c2C)cc1)C(=O)O)OC[C@H](c1ccc(OCc2ccc(Cl)c(Cl)c2)cc1)O3 [OAD2 dihydrochloride, (S)-2-(3S,8S)-3-(4-(3,4-dichlorobenzyloxy)phenyl-7-((S)-1-phenylpropyl)-2,3,6,7,8,9-hexahydro-[1,4]-dioxino[2,3-g]isoquinolin-8-ylformylamino)-3-(4-(2,3-dimethylpyridin-4-yl)phenyl)propionic acid dihydrochloride salt]
